The supplement of paper PMC10307832

What was measured:
Assay in all cases: relative viability (nuclei count vs DMSO), 5 days (fraction); higher = more cells survive
Bosutinib + Linsitinib = compound: COc1cc(Nc2c(C#N)cnc3cc(OCCCN4CCN(C)CC4)c(OC)cc23)c(Cl)cc1Cl [Bosutinib] + C[C@]1(O)C[C@@H](c2nc(-c3ccc4ccc(-c5ccccc5)nc4c3)c3c(N)nccn32)C1 [Linsitinib] (partner 1 µM)
Procedure, shortened: (§1)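 Lung cancer cell lines were seeded in 1536-well plates and dosed by pin tool the next day, with either a single drug or a fixed anchor-drug dose combined with five library-drug doses (not always all listed) spaced in √10 steps. Five days later, one step fixed the cells and stained their nuclei (final 0.05% Triton X-100, 1% formaldehyde, 1 ug/ml Hoechst), and nuclei were counted on 4× images. Relative viability is the nuclei count in treated wells divided by the count in vehicle wells, and each value is the median of duplicate plates.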

Bosutinib + Bortezomib = compound: COc1cc(Nc2c(C#N)cnc3cc(OCCCN4CCN(C)CC4)c(OC)cc23)c(Cl)cc1Cl [Bosutinib] + CC(C)C[C@H](NC(=O)[C@H](Cc1ccccc1)NC(=O)c1cnccn1)B(O)O [Bortezomib] (partner 0.002 µM)
Procedure, shortened: as §1

Bosutinib + Tozasertib = compound: COc1cc(Nc2c(C#N)cnc3cc(OCCCN4CCN(C)CC4)c(OC)cc23)c(Cl)cc1Cl [Bosutinib] + Cc1cc(Nc2cc(N3CCN(C)CC3)nc(Sc3ccc(NC(=O)C4CC4)cc3)n2)n[nH]1 [Tozasertib] (partner 0.1 µM)
Procedure, shortened: as §1

Bosutinib + Pemetrexed = compound: COc1cc(Nc2c(C#N)cnc3cc(OCCCN4CCN(C)CC4)c(OC)cc23)c(Cl)cc1Cl [Bosutinib] + Nc1nc2[nH]cc(CCc3ccc(C(=O)N[C@@H](CCC(=O)O)C(=O)O)cc3)c2c(=O)[nH]1 [Pemetrexed] (partner 0.2 µM)
Procedure, shortened: as §1

Bosutinib + Phenformin = compound: COc1cc(Nc2c(C#N)cnc3cc(OCCCN4CCN(C)CC4)c(OC)cc23)c(Cl)cc1Cl [Bosutinib] + N=C(N)NC(=N)NCCc1ccccc1 [Phenformin] (partner 250 µM)
Procedure, shortened: as §1

Cell Line | relative viability (Bosutinib + Linsitinib; first compound 0.01 µM) | relative viability (Bosutinib + Linsitinib; first compound 0.03162 µM) | relative viability (Bosutinib + Linsitinib; first compound 0.1 µM) | relative viability (Bosutinib + Linsitinib; first compound 1 µM) | relative viability (Bosutinib + Bortezomib; first compound 0.01 µM) | relative viability (Bosutinib + Bortezomib; first compound 0.03162 µM) | relative viability (Bosutinib + Bortezomib; first compound 0.1 µM) | relative viability (Bosutinib + Bortezomib; first compound 1 µM) | relative viability (Bosutinib + Tozasertib; first compound 0.01 µM) | relative viability (Bosutinib + Tozasertib; first compound 0.03162 µM) | relative viability (Bosutinib + Tozasertib; first compound 0.1 µM) | relative viability (Bosutinib + Tozasertib; first compound 1 µM) | relative viability (Bosutinib + Pemetrexed; first compound 0.01 µM) | relative viability (Bosutinib + Pemetrexed; first compound 0.03162 µM) | relative viability (Bosutinib + Pemetrexed; first compound 0.1 µM) | relative viability (Bosutinib + Pemetrexed; first compound 1 µM) | relative viability (Bosutinib + Phenformin; first compound 0.01 µM) | relative viability (Bosutinib + Phenformin; first compound 0.03162 µM) | relative viability (Bosutinib + Phenformin; first compound 0.1 µM) | relative viability (Bosutinib + Phenformin; first compound 1 µM)
NCI-H650 | 1.17 | 0.846 | 0.985 | 1.21 | 0.875 | 0.854 | 0.858 | 0.962 | 0.74 | 0.772 | 0.721 | 0.801 | 0.893 | 0.846 | 0.972 | 0.953 | 0.447 | 0.45 | 0.472 | 0.482
LCLC-103H | 1.11 | 1.12 | 1.04 | 1.04 | 1.03 | 1.13 | 1.13 | 0.936 | 0.486 | 0.497 | 0.48 | 0.484 | 0.442 | 0.516 | 0.5 | 0.449 | 0.338 | 0.322 | 0.327 | 0.409
PC-14 | 0.927 | 1.01 | 0.884 | 0.285 | 0.871 | 0.922 | 0.808 | 0.276 | 0.581 | 0.501 | 0.473 | 0.208 | 0.134 | 0.135 | 0.13 | 0.145 | 0.539 | 0.585 | 0.5 | 0.277
NCI-H2228 | 0.821 |  | 0.818 | 0.496 | 1.03 |  | 1.16 | 1.12 | 0.313 | 0.319 | 0.306 | 0.287 | 0.354 | 0.308 | 0.361 | 0.319 | 0.308 | 0.236 | 0.284 | 0.326
COR-L23 | 1 | 0.96 | 0.895 | 0.887 | 1.07 | 1.03 | 1.01 | 1.01 | 0.195 | 0.236 | 0.194 | 0.198 | 0.2 | 0.205 | 0.224 | 0.218 | 0.432 | 0.451 | 0.449 | 0.496
NCI-H1915 | 1.04 | 1.1 | 1.08 | 1.14 | 0.942 | 0.932 | 1.02 | 1.01 | 0.438 | 0.449 | 0.429 | 0.419 | 0.461 | 0.504 | 0.533 | 0.46 | 0.365 | 0.365 | 0.382 | 0.348
